Holding throughout (test): ≥ marks a high value that may be exact or a test limit, other limits are often not marked, values filed in µg/mL are converted to µM
Assay [1] deals with Salmonella enterica subsp. enterica serovar Enteritidis MH91989.
The test system of assay [2] is Acinetobacter baumannii ICB 14072.
Assay [3] relates to Escherichia coli J2210.
Assay [4] relates to Escherichia coli.
The subject of assay [5] is Klebsiella pneumoniae DSM 681.
The test system of assay [6] is Pseudomonas aeruginosa Pa1409.
Assay [7] deals with Pseudomonas aeruginosa ATCC 27853.
Assay [8] has as its system Enterobacter cloacae Ha185.
For assay [9], the system named is Escherichia coli UB1005.
The test system of assay [10] is Pseudomonas aeruginosa Pa4216.
In assay [11] the test system is Escherichia coli DSM 1103.
The subject of assay [12] is Salmonella typhimurium CMCC 50115.
Assay [13] has as its system Enterococcus faecalis ATCC 29212.
Assay [14] concerns Salmonella typhimurium SL1344.
For assay [15], the system named is Klebsiella pneumoniae.
Assay [16] relates to Escherichia coli JJ2487.
Assay [17] concerns Shigella flexneri CMCC 51572.

≈ marks a conversion by molar mass, not a printed value.

The MIC is the smallest concentration in the dilution series that meets the test's criterion for growth inhibition. A higher MIC goes with a less susceptible organism. Regarding `CC[C@H](C)[C@H](NC(=O)[C@H](CCCN=C(N)N)NC(=O)[C@H](CCCN=C(N)N)NC(=O)[C@@H]1CCCN1C(=O)[C@@H]1CCCN1C(=O)[C@H](CCCN=C(N)N)NC(=O)[C@@H]1CCCN1C(=O)[C@H](CCCN=C(N)N)NC(=O)[C@@H]1CCCN1C(=O)[C@H](CC(C)C)NC(=O)[C@H](Cc1ccc(O)cc1)NC(=O)[C@@H]1CCCN1C(=O)[C@@H]1CCCN1C(=O)[C@H](CCCCN)NC(=O)[C@H](CC(=O)O)NC(=O)[C@@H](N)C(C)C)C(=O)N[C@@H](Cc1ccc(O)cc1)C(=O)N[C@@H](CC(N)=O)C(=O)N[C@@H](CCCN=C(N)N)C(N)=O` [VDKPPYLPRPRPPRRIYNR], the MIC is 0.251 µM (≈ 0.6 µg/mL) in [1]; 0.418 µM (≈ 1 µg/mL) in [2]; 0.33 µM (≈ 0.79 µg/mL) in assay [3]; 0.296 µM (≈ 0.707 µg/mL) in [4]; 1.67 µM (≈ 4 µg/mL) in assay [5]; at least 53.5 µM in assay [6]. The MIC is 1.67 µM (≈ 4 µg/mL) in [7]; 0.209 µM (≈ 0.5 µg/mL) in [8]; 0.544 µM (≈ 1.3 µg/mL) in assay [9]; at least 53.5 µM in assay [10]; 3.35 µM (≈ 8 µg/mL) in assay [11]; 8 µM (≈ 19.1 µg/mL) in assay [12]. Moreover, the MIC in [13] is over 512 µM; in [14] it was 0.251 µM (≈ 0.6 µg/mL); in assay [15] it was 3.35 µM (≈ 8 µg/mL); in [16] it was 0.251 µM (≈ 0.6 µg/mL); in [17] it was 8 µM (≈ 19.1 µg/mL).

For the origin of these results see DBAASP.
